Where a name gives a salt, the structure may show the parent alone.

Experiment [1] concerns hypertensive MHS rats. Kind of experiment: systolic blood pressure and heart rate in hypertensive MHS rats, indirect tail-cuff method, oral. Type of experiment: in vivo, rat (MHS). The conditions noted are these: n=7, 20 mg/kg os daily for ten days, in METHOCEL 0.5% w/v; for SBP (systolic blood pressure): controls 174 +/- 5.5; for HR (heart rate): controls 378 +/- 11.0. The protocol: The ability of these compounds to lower blood pressure in adult hypertensive MHS rats was tested by the following method:
systolic blood pressure (SBP) and heart rate (HR) were measured by an indirect tail-cuff method in three-month old hypertensive MHS rats before beginning treatment (basal values). The rats were then subdivided in two groups of 7 animals each, one receiving the compound and the other, the control group, receiving only the vehicle. The compound, suspended in METHOCEL® 0.5% (w/v), for ten days, was administered daily by mouth. SBP and HR were measured daily 6 and 24 hours after the treatment. When ten-day treatment washout had been under way for at least two days, whether the treatment maintains SBP low or re-establish the basal values was verified. […]

Experiment [2] deals with T1, Na^+,K^+ -ATPase (Homo sapiens, UniProt P05023).
T1 construct: Na^+,K^+ -ATPase receptor purified according to Jorghensen; from tissue
As to the kind of experiment: displacement of the specific 3H-ouabain binding from the purified Na+,K+-ATPase receptor. The source says: (§1) To test the affinity for the receptor site of the Na^+,K^+ -ATPase and the agonist or inhibitory activity on the enzyme, the following tests were used: a) displacement of the specific 3H-ouabain binding from the Na^+,K^+ -ATPase receptor purified according to Jorghensen (Jorghensen P., BBA, 1974, 356, 36) and Erdmann (Erdmann E. et al., Arzneim. Forsh., 1984, 34 (II), 1314); b) inhibition of the activity of the purified Na^+,K^+ -ATPase measured as % of hydrolysis of ^32 P-ATP in presence and in absence of the tested compound (Mall F. et al., Biochem. Pharmacol., 1984, 33, 47).

The target of experiment [3] is T1, Na^+,K^+ -ATPase. As to the kind of experiment: inhibition of the activity of the purified Na+,K+-ATPase (% hydrolysis of 32P-ATP). Type of experiment: biochemical.
Excerpt: as §1

Where [4] appears, read: 3H-ouabain displacement, purified Na+,K+-ATPase, read-out: Binding ^3 H-Ouab. Displacement log. IC50 (converted).
Where [5] appears, read: purified Na+,K+-ATPase, 32P-ATP hydrolysis, read-out: Inhibitory Activity log. IC50 (converted).

Regarding `C[C@]12CC[C@H](O)C[C@H]1CC[C@@H]1[C@@H]2CC[C@]2(C)[C@@H](C3=CC(=O)OC3)CC[C@]12O` [DIGI, digitoxigenin, reference compound], in experiment [1], the “SBP (systolic blood pressure)” value is recorded as 173 +/- 4.0 mm Hg and the “HR (heart rate)” value is 380 +/- 10.0 beats/min.
The term IC50 denotes the concentration needed to halve the response being measured. Consider `C[C@]12CC[C@H](SCCN3CCCC3)C[C@H]1CC[C@@H]1[C@@H]2CC[C@]2(C)[C@@H](C3=CC(=O)OC3)CC[C@@H]12` [I-a, 3β-(2-(1-Pyrrolidinyl)ethylthio)-5β,14α-card-20(22)-enolideOxalate], for which the IC50 in experiment [2] (setting [4]) is 3160 nM; in experiment [3], 5.01 µM.
For the compound `CN(C)CCCS[C@H]1CC[C@@]2(C)[C@H](CC[C@@H]3[C@@H]2CC[C@]2(C)[C@@H](C4=CC(=O)OC4)CC[C@@H]32)C1` [I-b, 3β-(3-Dimethylaminopropylthio)-5β,14α-card-20(22)-enolide Oxalate], the IC50 in experiment [2] (setting [4]) was 1000 nM; in experiment [3], 3.16 µM.
On to `C[C@]12CC[C@H](SCCCN3CCNCC3)C[C@H]1CC[C@@H]1[C@@H]2CC[C@]2(C)[C@@H](C3=CC(=O)OC3)CC[C@@H]12` [I-c, 3β-(3-(1-Piperazinyl)propylthio)-5β,14α-card-20(22)-enolideDioxalate], for which the IC50 in experiment [2] (setting [4]) was 794 nM. In experiment [3], this compound gave an IC50 of 1.58 µM. Also, in experiment [1], the “SBP (systolic blood pressure)” value is reported as 144 +/- 6.2 mm Hg and the “HR (heart rate)” value is listed as 390 +/- 12.0 beats/min.
Turning to `C[C@]12CC[C@H](SCCCN)C[C@H]1CC[C@@H]1[C@@H]2CC[C@]2(C)[C@@H](C3=CC(=O)OC3)CC[C@@H]12` [I-d, 3β-(3-Aminopropylthio)-5β,14α-card-20(22)-enolide Oxalate], the IC50 in experiment [2] is 1260 nM. This compound also had a 50% inhibitory concentration (IC50) in experiment [3] of 2 µM. In experiment [1], the “SBP (systolic blood pressure)” value is recorded as 154 +/- 5.2 mm Hg and the “HR (heart rate)” value is 384 +/- 10.3 beats/min.
`C[C@]12CC[C@H](SCC(O)CN3CCCC3)C[C@H]1CC[C@@H]1[C@@H]2CC[C@]2(C)[C@@H](C3=CC(=O)OC3)CC[C@@H]12` (stereo partly drawn) [I-e, 3β-(3-(1-Pirrolidinyl)-2-hydroxypropylthio)-5β,14α-card-20(22)-enolide]: the 50% inhibitory concentration (IC50) in experiment [2] (setting [4]) is 2000 nM; in experiment [3] (setting [5]) it was 3.98 µM.
Regarding `C[C@]12CC[C@H]3[C@@H](CCC4=C[C@@H](SCCCN)CC[C@@]43C)[C@@H]1CC[C@@H]2C1=CC(=O)OC1` [I-f, 3β-(3-Aminopropylthio)-14α-card-4,20(22)-dienolide Oxalate], the IC50 in experiment [2] (setting [4]) is 1260 nM. Further, the IC50 in experiment [3] (setting [5]) is 3.16 µM. For the same compound, in experiment [1], the “SBP (systolic blood pressure)” value is recorded as 148 +/- 5.6 mm Hg and the “HR (heart rate)” value is reported as 386 +/- 9.3 beats/min.
Turning to `C[C@]12CC[C@H]3[C@@H](CC=C4C[C@@H](SCCCN)CC[C@@]43C)[C@@H]1CC[C@@H]2C1=CC(=O)OC1` [I-g, 3β-(3-Aminopropylthio)-14α-card-5,20(22)-dienolide Oxalate], the IC50 in experiment [2] (setting [4]) was 1000 nM. Moreover, in experiment [3] (setting [5]), the IC50 was 2 µM. In experiment [1], the “SBP (systolic blood pressure)” value was 150 +/- 5.2 mm Hg and the “HR (heart rate)” value is given as 383 +/- 9.6 beats/min.
Take `C[C@]12CC[C@H](SCCCN)C[C@@H]1CC[C@@H]1[C@@H]2CC[C@]2(C)[C@@H](C3=CC(=O)OC3)CC[C@@H]12` [I-h, 3β-(3-Aminopropylthio)-5α,14α-card-20(22)-enolide Oxalate]: the IC50 in experiment [2] is 1580 nM. The 50% inhibitory concentration (IC50) in experiment [3] is 3.98 µM. In experiment [1], the “SBP (systolic blood pressure)” value is 158 +/- 5.4 mm Hg and the “HR (heart rate)” value is given as 379 +/- 10.4 beats/min.
